Patent US20210395239A1 (Hoffmann-La Roche Inc., priority 2018, published 2021)

Each compound was assayed against T1, human TLR7 (Homo sapiens, UniProt Q9NYK1) (assay: HEK293-Blue-hTLR-7 cells assay (SEAP reporter, R848 stimulation)). Settings: HEK293-Blue-hTLR7 cells, R848, 20 hrs; read-out: HEK/hTLR7 IC50.
T1 construct: host or cells: HEK293 (HEK-Blue hTLR7)
T1 sequence (Q9NYK1 27-1049): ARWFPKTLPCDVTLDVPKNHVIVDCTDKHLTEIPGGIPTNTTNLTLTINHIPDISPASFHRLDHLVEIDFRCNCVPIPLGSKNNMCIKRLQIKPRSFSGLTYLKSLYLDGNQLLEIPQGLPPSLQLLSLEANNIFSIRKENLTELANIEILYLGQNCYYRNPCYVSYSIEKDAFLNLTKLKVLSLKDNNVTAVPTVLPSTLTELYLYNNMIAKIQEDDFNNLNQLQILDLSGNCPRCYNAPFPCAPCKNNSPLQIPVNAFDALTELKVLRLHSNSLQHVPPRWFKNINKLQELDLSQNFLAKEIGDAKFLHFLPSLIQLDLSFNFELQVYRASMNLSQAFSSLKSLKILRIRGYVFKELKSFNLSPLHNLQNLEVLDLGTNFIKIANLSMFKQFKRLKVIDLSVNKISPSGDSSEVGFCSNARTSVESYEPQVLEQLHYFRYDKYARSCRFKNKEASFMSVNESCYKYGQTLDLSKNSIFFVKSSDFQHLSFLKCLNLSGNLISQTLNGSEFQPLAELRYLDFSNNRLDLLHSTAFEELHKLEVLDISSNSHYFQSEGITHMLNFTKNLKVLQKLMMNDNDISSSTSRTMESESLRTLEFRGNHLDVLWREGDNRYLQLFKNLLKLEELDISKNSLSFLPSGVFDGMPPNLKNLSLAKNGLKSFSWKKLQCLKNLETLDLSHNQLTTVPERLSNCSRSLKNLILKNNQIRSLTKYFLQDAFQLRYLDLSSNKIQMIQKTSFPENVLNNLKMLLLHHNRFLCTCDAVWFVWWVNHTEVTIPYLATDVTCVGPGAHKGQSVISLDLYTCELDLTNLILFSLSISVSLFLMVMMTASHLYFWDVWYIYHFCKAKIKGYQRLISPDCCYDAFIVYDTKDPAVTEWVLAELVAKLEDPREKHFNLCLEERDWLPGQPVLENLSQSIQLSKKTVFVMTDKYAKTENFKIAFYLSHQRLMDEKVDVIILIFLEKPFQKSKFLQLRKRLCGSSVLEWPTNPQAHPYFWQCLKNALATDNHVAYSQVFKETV
Type: cell-based
Procedure, shortened: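 HEK293-Blue-hTLR7 cells (NF-κB/AP-1-driven SEAP reporter) were stimulated with R848 alongside serially diluted compound at 1% final DMSO for 20 h at 37 °C. Supernatant SEAP was then developed with QUANTI-Blue for 2 h at 37 °C and absorbance read at 620–655 nm; antagonism is measured as reduced reporter signal.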

IC50 [nM]	Structure (SMILES)
24	Cc1cc(N2CCN(C[C@H]3CN(c4ccc(C#N)c5ncccc45)C[C@@H](C)O3)CC2)nc(N2C[C@H](N)C[C@H](F)C2)n1 (relative stereo) [Example 74, 5-[(2R,6S)-2-methyl-6-[[4-[6-methyl-2-[cis-3-amino-5-fluoro-1-piperidyl]pyrimidin-4-yl]piperazin-1-yl]methyl]morpholin-4-yl]quinoline-8-carbonitrile]
25	Cc1cc(N2CCN(C[C@H]3CN(c4ccc(C#N)c5ncccc45)C[C@@H](C)O3)CC2)nc(N2C[C@H](N)C[C@@H](F)C2)n1 (relative stereo) [Example 75, 5-[(2R,6S)-2-methyl-6-[[4-[6-methyl-2-[trans-3-amino-5-fluoro-1-piperidyl]pyrimidin-4-yl]piperazin-1-yl]methyl]morpholin-4-yl]quinoline-8-carbonitrile]
11	CO[C@H]1CN(c2nc(C)cc(N3CCN(C[C@H]4CN(c5ccc(C#N)c6ncccc56)C[C@@H](C)O4)CC3)n2)C[C@@H]1N (single isomer, unassigned) [Example 69A]
7	CO[C@@H]1CN(c2nc(C)cc(N3CCN(C[C@H]4CN(c5ccc(C#N)c6ncccc56)C[C@@H](C)O4)CC3)n2)C[C@H]1N (single isomer, unassigned) [Example 69B]
10	Cc1cc(N2CCN(C[C@H]3CN(c4ccc(C#N)c5ncccc45)C[C@@H](C)O3)CC2)nc(N2CC[C@@H](F)C(N)C2)n1 (single isomer, unassigned) [Example 84]
21	COC1CN(c2nc(C)cc(N3CCN(C[C@H]4CN(c5ccc(C#N)c6ncccc56)C[C@@H](C)O4)CC3)n2)CC1N (single isomer, unassigned) [Example 88]
70	COC1CNCC1Nc1nc(C)cc(N2CCN(C[C@H]3CN(c4ccc(C#N)c5ncccc45)C[C@@H](C)O3)CC2)n1 (stereo in doubt) [Example 70, 5-[(2S,6R)-2-[[4-[2-[[(3R,4R)-4-methoxypyrrolidin-3-yl]amino]-6-methyl-pyrimidin-4-yl]piperazin-1-yl]methyl]-6-methyl-morpholin-4-yl]quinoline-8-carbonitrile]
49	Cc1cc(N2CCN(C[C@H]3CN(c4ccc(C#N)c5ncccc45)C[C@@H](C)O3)CC2)nc(NC2CNCC2F)n1 (stereo in doubt) [Example 73, 5-[(2S,6R)-2-[[4-[2-[[(3S,4R)-4-fluoropyrrolidin-3-yl]amino]-6-methyl-pyrimidin-4-yl]piperazin-1-yl]methyl]-6-methyl-morpholin-4-yl]quinoline-8-carbonitrile]
29	Cc1cc(N2CCN(C[C@H]3CN(c4ccc(C#N)c5ncccc45)C[C@@H](C)O3)CC2)nc(N2CC[C@@H](N)C(F)C2)n1 (stereo in doubt) [Example 82, 5-[(2S,6R)-2-[[4-[2-[(3R,4R)-4-amino-3-fluoro-1-piperidyl]-6-methyl-pyrimidin-4-yl]piperazin-1-yl]methyl]-6-methyl-morpholin-4-yl]quinoline-8-carbonitrile]
21	CO[C@H]1CN(c2nc(C)cc(N3CCN(C[C@H]4CN(c5ccc(C#N)c6ncccc56)C[C@@H](C)O4)CC3)n2)CCC1N (stereo in doubt) [Example 90, 5-[(2S,6R)-2-[[4-[2-[(3S,4S)-4-amino-3-methoxy-1-piperidyl]-6-methyl-pyrimidin-4-yl]piperazin-1-yl]methyl]-6-methyl-morpholin-4-yl]quinoline-8-carbonitrile]
45	Cc1cc(N2CCN(C[C@H]3CN(c4ccc(C#N)c5ncccc45)C[C@@H](C)O3)CC2)nc(N[C@@H]2CNC[C@@H]2F)n1 [Example 71, 5-[(2S,6R)-2-[[4-[2-[[(3R,4S)-4-fluoropyrrolidin-3-yl]amino]-6-methyl-pyrimidin-4-yl]piperazin-1-yl]methyl]-6-methyl-morpholin-4-yl]quinoline-8-carbonitrile]
6	CO[C@@H]1CN(c2nc(C)cc(N3CCN(C[C@H]4CN(c5ccc(C#N)c6ncccc56)C[C@@H](C)O4)CC3)n2)C[C@@H]1N [Example 72, 5-[(2S,6R)-2-[[4-[2-[(3S,4R)-3-amino-4-methoxy-pyrrolidin-1-yl]-6-methyl-pyrimidin-4-yl]piperazin-1-yl]methyl]-6-methyl-morpholin-4-yl]quinoline-8-carbonitrile]
20	Cc1cc(N2CCN(C[C@H]3CN(c4ccc(C#N)c5ncccc45)C[C@@H](C)O3)CC2)nc(N[C@@H]2CNC[C@H]2F)n1 [Example 76, 5-[(2S,6R)-2-[[4-[2-[[(3R,4R)-4-fluoropyrrolidin-3-yl]amino]-6-methyl-pyrimidin-4-yl]piperazin-1-yl]methyl]-6-methyl-morpholin-4-yl]quinoline-8-carbonitrile]
26	Cc1cc(N2CCN(C[C@H]3CN(c4ccc(C#N)c5ncccc45)C[C@@H](C)O3)CC2)nc(N2C[C@@H](N)C[C@@H](F)C2)n1 [Example 77, 5-[(2S,6R)-2-[[4-[2-[(3S,5R)-3-amino-5-fluoro-1-piperidyl]-6-methyl-pyrimidin-4-yl]piperazin-1-yl]methyl]-6-methyl-morpholin-4-yl]quinoline-8-carbonitrile]
20	Cc1cc(N2CCN(C[C@H]3CN(c4ccc(C#N)c5ncccc45)C[C@@H](C)O3)CC2)nc(N2CC[C@@H](N)[C@@H](F)C2)n1 [Example 78, 5-[(2S,6R)-2-[[4-[2-[(3S,4R)-4-amino-3-fluoro-1-piperidyl]-6-methyl-pyrimidin-4-yl]piperazin-1-yl]methyl]-6-methyl-morpholin-4-yl]quinoline-8-carbonitrile]
21	Cc1cc(N2CCN(C[C@H]3CN(c4ccc(C#N)c5ncccc45)C[C@@H](C)O3)CC2)nc(N2C[C@@H](N)[C@H](F)C2)n1 [Example 79, 5-[(2S,6R)-2-[[4-[2-[(3R,4R)-3-amino-4-fluoro-pyrrolidin-1-yl]-6-methyl-pyrimidin-4-yl]piperazin-1-yl]methyl]-6-methyl-morpholin-4-yl]quinoline-8-carbonitrile]
107	Cc1cc(N2CCN(C[C@H]3CN(c4ccc(C#N)c5ncccc45)C[C@@H](C)O3)CC2)nc(N2CC(N)CC(F)(F)C2)n1 (stereo partly drawn) [Example 80, 5-[(2S,6R)-2-[[4-[2-(5-amino-3,3-difluoro-1-piperidyl)-6-methyl-pyrimidin-4-yl]piperazin-1-yl]methyl]-6-methyl-morpholin-4-yl]quinoline-8-carbonitrile]
22	Cc1cc(N2CCN(C[C@H]3CN(c4ccc(C#N)c5ncccc45)C[C@@H](C)O3)CC2)nc(N2CCNC(C(C)(C)O)C2)n1 (stereo partly drawn) [Example 81, 5-[(2S,6R)-2-[[4-[2-[3-(1-hydroxy-1-methyl-ethyl)piperazin-1-yl]-6-methyl-pyrimidin-4-yl]piperazin-1-yl]methyl]-6-methyl-morpholin-4-yl]quinoline-8-carbonitrile]
32	Cc1cc(N2CCN(C[C@H]3CN(c4ccc(C#N)c5ncccc45)C[C@@H](C)O3)CC2)nc(N2CC[C@@H](F)[C@@H](N)C2)n1 [Example 83, 5-[(2R,6S)-2-methyl-6-[[4-[6-methyl-2-[(3S,4R)-3-amino-4-fluoro-1-piperidyl]-pyrimidin-4-yl]piperazin-1-yl]methyl]morpholin-4-yl]quinoline-8-carbonitrile]
22	Cc1cc(N2CCN(C[C@H]3CN(c4ccc(C#N)c5ncccc45)C[C@@H](C)O3)CC2)nc(N2CCC(N)C(F)(F)C2)n1 (stereo partly drawn) [Example 86, 5-[(2S,6R)-2-[[4-[2-(4-amino-3,3-difluoro-1-piperidyl)-6-methyl-pyrimidin-4-yl]piperazin-1-yl]methyl]-6-methyl-morpholin-4-yl]quinoline-8-carbonitrile]
8	Cc1cc(N2CCN(C[C@H]3CN(c4ccc(C#N)c5ncccc45)C[C@@H](C)O3)CC2)nc(N2CC(N)C2)n1 [Example 87, 5-[(2S,6R)-2-[[4-[2-(3-aminoazetidin-1-yl)-6-methyl-pyrimidin-4-yl]piperazin-1-yl]methyl]-6-methyl-morpholin-4-yl]quinoline-8-carbonitrile]
6	C[C@@H]1CN(c2ccc(C#N)c3ncccc23)C[C@H](CN2CCN(c3ccccc3C3CNCCO3)CC2)O1 (stereo partly drawn) [Example 89, 5-[(2R,6S)-2-methyl-6-[[4-(2-morpholin-2-ylphenyl)piperazin-1-yl]methyl]morpholin-4-yl]quinoline-8-carbonitrile]
